Measured values reported in PMC11608315, “Subtilase SBT5.2 inactivates flagellin immunogenicity in the plant apoplast” (Nature Communications, 2024).
No end group written: not given here.

Tests used:
[1] = system: leaf discs of WT or sbt5.2 mutant N. benthamiana; assay: ROS burst assay on sbt5.2 mutant versus WT leaf discs (timing, dose response); format: cell-based, Nicotiana benthamiana; details: n = 12; Fig. 5e, 5f
Protocol: (§1) ROS assays were performed as described previously. Briefly, after incubation in water overnight, one leaf disc (6 mm diameter) was added to 100 µl solution containing 25 ng/µl luminol, 25 ng/µl Horse Radish Peroxidase (HRP) and specified elicitor treatments. For assays with treated elicitors, elicitor peptides or purified flagellin were incubated in AFs from N. benthamiana leaves (wild-type, agroinfiltrated, VIGS-silenced or sbt5.2 mutants) or purified SBT5.2a-HIS for the specified time at 21 °C. After incubation, 25 ng/µl luminol and 25 ng/µl HRP were added to the AFs. Chemiluminescence was measured immediately with the Infinite M200 plate reader (Tecan, Mannedorf, Switzerland) every minute for one hour. Standard errors were calculated at each time point and for each treatment.

[2] = system: apoplastic proteases in apoplastic fluids (AF) of N. benthamiana; assay: Residual immunogenicity (ROS assay) after incubation of elicitor in AF of WT plants; format: in vitro ADME, Nicotiana benthamiana; details: ROS read-out, n = 6
Protocol: (§2) N. benthamiana leaves were submerged in ice-cold water and vacuum infiltrated in a 50 ml syringe with a plunger. The surface of water-infiltrated leaves was dried with absorbing paper and leaves were carefully inserted into an empty 20 ml syringe, which was placed in a 50 ml tube. AFs were collected by centrifugation at 2000 × g at 4 °C for 10 min. AFs were immediately used or frozen using liquid nitrogen and stored at −20 °C until use.
as §1

[3] = system: subtilases in AF of N. benthamiana; assay: Residual immunogenicity (ROS assay) after incubation in AF of leaves transiently expressing Epi1 or empty vector; format: in vitro ADME, Nicotiana benthamiana; details: 10 µg/ml monomeric flagellin or 100 nM flg22, 40 min in AF; ROS read-out, n = 6; Fig. 3b
Protocol: (§3) Agrobacterium tumefaciens GV3101 (pMP90) was used for agroinfiltration of N. benthamiana. Agrobacteria were grown overnight in Luria-Bertani (LB) medium with 10 μg/ml gentamycin and 50 μg/ml kanamycin at 28 °C. For transient expression of proteins in N. benthamiana, overnight cultures of Agrobacterium carrying binary vectors listed in Supplementary Table 1 were harvested by centrifugation. Bacterial cells were resuspended in agroinfiltration buffer (10 mM MgCl2, 10 mM MES pH 5.6, 150 μM acetosyringone) and mixed (1:1) with agrobacteria carrying the silencing inhibitor p19 at an OD600 of 0.5. After 1 h at 28 °C, cells were infiltrated into leaves of 4-week-old N. benthamiana. The infected plants were grown in a growth chamber until use.
as §2, with “AFs were immediately used or frozen using liquid nitrogen and stored at −20 °C until use.” left out
ROS assays were performed as described previously. […] Chemiluminescence was measured immediately with the Infinite M200 plate reader (Tecan, Mannedorf, Switzerland) every minute for one hour. Standard errors were calculated at each time point and for each treatment.

[4] = system: FLS2; details: microsomal fractions that presumably lack subtilases; read-out: IC50, competition with binding by radiolabeled flg22; cited from earlier work
Source text: However, although flagellin can bind FLS2, it is unclear at this stage if it would also activate FLS2 signalling because that would require subsequent BAK1 binding to FLS2. The extension of flg22 at its C-terminus is likely to obstruct BAK1 binding, based on the structure of flg22 bound to the FLS2 and BAK1[34].

[5] = system: subtilases (SBTs), papain-like Cys proteases (PLCPs) and metalloproteases in AF; assay: QP processing in AF of leaves expressing protease inhibitors Epi1, SlCys8 or HsTIMP; format: biochemical, Nicotiana benthamiana; details: AF from leaves transiently expressing Epi1 (HsTIMP for comparison); EV = 100%; n = 3; Fig. 3a
Protocol: as §3
The quenched peptides (QPs) from flagellin were commercially synthesised with a DABCYL N-terminal modification and a Glu-EDANS C-terminal modification (GenScript, Piscataway, New Jersey, United States) at a purity of 95% (Supplementary Table 2). They were resuspended in DMSO at a concentration of 1 mM. […] AFs or purified SBT5.2a were mixed with QPs at a final concentration of 10 µM in a volume of 100 µl, and fluorescence was measured immediately at 21 °C using an Infinite M200 plate reader (Tecan, Mannedorf, Switzerland) every minute over 5 min with an excitation wavelength of 335 nm and emission wavelength of 493 nm. […]

[6] = system: SBT5.2, SBT1.9a, SBT1.7a, SBT1.7c in AF; assay: QP processing in AF of plants silenced for subtilases (VIGS); format: in vitro ADME, Nicotiana benthamiana; details: 10 µM QP; TRV::GFP = 100%; n = 3 plants; Fig. 4a
Protocol: (§4) The quenched peptides (QPs) from flagellin were commercially synthesised with a DABCYL N-terminal modification and a Glu-EDANS C-terminal modification (GenScript, Piscataway, New Jersey, United States) at a purity of 95% (Supplementary Table 2). They were resuspended in DMSO at a concentration of 1 mM. This stock solution was further diluted in water to a concentration of 200 µM. AFs or purified SBT5.2a were mixed with QPs at a final concentration of 10 µM in a volume of 100 µl, and fluorescence was measured immediately at 21 °C using an Infinite M200 plate reader (Tecan, Mannedorf, Switzerland) every minute over 5 min with an excitation wavelength of 335 nm and emission wavelength of 493 nm.
(§5) Agrobacterium cultures were grown overnight and resuspended in an agroinfiltration buffer at OD600 = 0.5. Agrobacteria carrying binary plasmids for expressing RNA2 of TRV-carrying silencing fragments (Supplementary Table 1) were mixed 1:1 with Agrobacteria containing TRV1[38]. After incubation for 1 h at 21 °C, the mixed cultures were infiltrated into the leaves of 14-day-old N. benthamiana plants. The infiltrated plants were grown for another 4 to 5 weeks in a growth chamber until use.
N. benthamiana leaves were submerged in ice-cold water and vacuum infiltrated in a 50 ml syringe with a plunger. […]

[7] = system: AF of sbt5.2 mutant N. benthamiana; format: in vitro ADME, Nicotiana benthamiana; details: 10 µM QP; n = 4; Fig. 5b
Protocol: as §4, §2

[8] = system: purified SBT5.2a-His; assay: QP cleavage by purified SBT5.2a-His (fluorescence); format: biochemical, Nicotiana benthamiana; details: 10 μl of 25 μg/ml SBT5.2a-His, 10 µM QP; n = 4; Fig. 6a
Protocol: as §4
(§6) Four-week-old N. benthamiana leaves were infiltrated with a 1:1 mixture (final OD600 = 0.5 for each) of Agrobacterium tumefaciens GV3101 containing the silencing suppressor P19 and pPB097[22]. Apoplastic fluid containing SBT5.2a-His was extracted 6 days after infiltration as described above and purified as previously described[40],[41]. Briefly, SBT5.2a-His was purified by HisPur™ Ni-NTA resin and concentrated in 25 mM Tris-HCl pH = 6.8 using a 50 kDa MWCO Amicon Ultra-15 filter.

[9] = system: SBT5.2 subtilases in AF; assay: Residual immunogenicity (ROS assay) after incubation in AF of TRV::SBT5.2 or TRV::GFP plants; format: in vitro ADME, Nicotiana benthamiana; details: 100 nM flg22, 0, 30, 60 min in AF; ROS read-out, n = 6; Fig. 4b
Protocol: as §5, §2
ROS assays were performed as described previously. Briefly, after incubation in water overnight, one leaf disc (6 mm diameter) was added to 100 µl solution containing 25 ng/µl luminol, 25 ng/µl Horse Radish Peroxidase (HRP) and specified elicitor treatments. […] Chemiluminescence was measured immediately with the Infinite M200 plate reader (Tecan, Mannedorf, Switzerland) every minute for one hour. Standard errors were calculated at each time point and for each treatment.

[10] = system: AF of sbt5.2 mutant N. benthamiana; format: in vitro ADME, Nicotiana benthamiana; details: 100 nM flg22, 30 min in AF; ROS read-out, n = 6; Fig. 5c
Protocol: as §2, §1

[11] = system: purified SBT5.2a-His; assay: Residual immunogenicity (ROS assay) after incubation with purified SBT5.2a-His; format: biochemical, Nicotiana benthamiana; details: 50 nM flg22, 10 μg/ml SBT5.2a-His, 40 min; ROS read-out, n = 6; Fig. 6b
Protocol: as §6, §1

[12] = Solubility of quenched peptide (observation on dissolving the powder); format: physicochemical; details: noticed when dissolving the peptide powder; response to reviewers

Substance: flagellin
- timing and amplitude of oxidative burst, WT versus sbt5.2 mutant leaf discs [1]: similar
- oxidative burst after incubation with AF ([2]; 10 µg/ml monomeric flagellin incubated with AF for 30 or 60 min, 21 °C, Fig. 1e): quickly disappears
- immunogenic activity after incubation in AF from leaves expressing Epi1 [3]: immunogenic activity was detected
- IC50 [4]: 120 nM

Substance: SAKDDAAG [QP3, custom-synthesised quenched peptide with cleavage site SAKD ↓ DAAG within flg22, DABCYL and Glu-EDANS]
- QP processing in AF containing Epi1 [5]: suppressed more by Epi1 than by HsTIMP
- QP processing in AF of TRV::SBT1.9a and TRV::SBT1.7a plants [6]: also reduced
- QP processing in AF of TRV::SBT5.2 plants compared to TRV::GFP control [6]: not as strongly reduced
- QP processing in AF of sbt5.2 mutant plants versus WT [7]: only slightly reduced
- cleavage by purified SBT5.2a-His [8]: hardly cleaved

Substance: TRLSSGLKINSAKDDAAGLQIA [flg22, reference compound]
- immunogenicity after incubation in AF of WT plants ([2]; 100 nM flg22, 30 min in AF, Fig. 5c): quickly lost
- immunogenic activity after incubation in AF from leaves expressing Epi1 [3]: immunogenic activity was detected
- decline of immunogenicity in AF of TRV::SBT5.2 compared to TRV::GFP plants [9]: much slower
- immunogenicity after incubation in AF of sbt5.2 plants [10]: retains immunogenicity significantly longer
- elicitor activity after incubation with purified SBT5.2a-His [11]: inactivated its elicitor activity

Substance: LQIA ↓ TKITS [QP4, custom-synthesised quenched peptide with flg22-flanking site LQIA ↓ TKITS, DABCYL and Glu-EDANS]
- QP processing in AF containing Epi1 [5]: near complete blockage
- QP processing in AF of sbt5.2 mutant plants versus WT [7]: strongly reduced but not significant
- solubility [12]: problematic
